# Measured values published in article PMC11591901 (Biomolecules, 2024).
# pIC50: −log10 of the molar value. Like-named read-outs stand apart in the source and are kept apart here.
# How the values were obtained:
# [1] = target: T1, butyrylcholinesterase from equine serum (eqBChE, E.C. 3.1.1.8) (Equus caballus, UniProt P81908); assay: biochemical
# T1 construct: butyrylcholinesterase from equine serum (eqBChE, E.C. 3.1.1.8); purchased Sigma Aldrich; host or cells: equine serum
# [2] = target: Acetylcholinesterase from electric eel (eeAChE, type VI-S) (Electrophorus electricus, UniProt O42275); assay: biochemical
# Acetylcholinesterase from electric eel (eeAChE, type VI-S), sequence (O42275 24-633): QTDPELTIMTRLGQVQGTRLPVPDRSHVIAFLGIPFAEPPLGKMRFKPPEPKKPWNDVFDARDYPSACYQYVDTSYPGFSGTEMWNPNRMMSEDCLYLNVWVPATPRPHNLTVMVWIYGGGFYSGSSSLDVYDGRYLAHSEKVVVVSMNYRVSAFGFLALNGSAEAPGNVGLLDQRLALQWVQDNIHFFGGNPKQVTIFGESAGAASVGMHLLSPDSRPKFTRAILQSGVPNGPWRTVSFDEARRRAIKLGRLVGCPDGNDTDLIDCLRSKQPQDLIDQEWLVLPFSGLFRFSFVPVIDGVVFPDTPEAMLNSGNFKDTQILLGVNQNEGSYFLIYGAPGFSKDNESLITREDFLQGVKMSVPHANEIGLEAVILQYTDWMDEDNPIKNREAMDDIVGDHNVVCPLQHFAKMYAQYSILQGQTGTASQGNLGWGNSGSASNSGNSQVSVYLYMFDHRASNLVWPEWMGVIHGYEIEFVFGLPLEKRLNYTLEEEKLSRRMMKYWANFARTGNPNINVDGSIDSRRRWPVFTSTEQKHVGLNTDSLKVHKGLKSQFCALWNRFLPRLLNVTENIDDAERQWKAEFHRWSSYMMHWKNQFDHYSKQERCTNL
# [3] = eqBChE, Ellman assay, triplicate
# [4] = eeAChE, Ellman assay, triplicate
# T1 sequence (P81908 whole entry): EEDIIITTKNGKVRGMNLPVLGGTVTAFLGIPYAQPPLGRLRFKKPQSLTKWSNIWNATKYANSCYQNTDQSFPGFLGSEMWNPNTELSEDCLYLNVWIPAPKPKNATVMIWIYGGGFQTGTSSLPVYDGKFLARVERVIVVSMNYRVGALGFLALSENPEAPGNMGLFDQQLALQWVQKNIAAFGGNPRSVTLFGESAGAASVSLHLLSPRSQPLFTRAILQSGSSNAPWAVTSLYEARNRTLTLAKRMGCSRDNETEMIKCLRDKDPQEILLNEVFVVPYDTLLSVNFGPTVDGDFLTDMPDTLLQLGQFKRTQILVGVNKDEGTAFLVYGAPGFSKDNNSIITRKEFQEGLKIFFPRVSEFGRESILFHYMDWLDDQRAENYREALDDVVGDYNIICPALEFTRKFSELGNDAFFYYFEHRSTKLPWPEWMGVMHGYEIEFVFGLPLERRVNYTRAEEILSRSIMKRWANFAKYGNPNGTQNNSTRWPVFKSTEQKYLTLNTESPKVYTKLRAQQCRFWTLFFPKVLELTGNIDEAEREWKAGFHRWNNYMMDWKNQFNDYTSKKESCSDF
SMILES,"pIC50 [1, 3]","pIC50 [2, 4]",pIC50 [1],pIC50 [2]
"Cc1ccc(Cn2nnc3ccc4sccc4c32)cc1 [Compound 14, 1-(4-methylbenzyl)-1H-thieno [3’,2’:3,4]benzo [1,2-d][1,2,3]triazole]",4.61,3.93,,
"Clc1ccc(Cn2nnc3ccc4sccc4c32)cc1 [Compound 15, 1-(4-chlorobenzyl)-1H-thieno [3’,2’:3,4]benzo [1,2-d][1,2,3]triazole]",4.46,4.11,,
"Cc1cccc(Cn2nnc3ccc4sccc4c32)c1 [Compound 16, 1-(3-methylbenzyl)-1H-thieno [3’,2’:3,4]benzo [1,2-d][1,2,3]triazole]",5.54,4.11,,
"Cc1ccc(Cn2nnc3ccc4sc(C)cc4c32)cc1 [Compound 17, 7-methyl-1-(4-methylbenzyl)-1H-thieno [3’,2’:3,4]benzo [1,2-d][1,2,3]triazole]",4.24,< 3.60,,
"Cc1cc2c(ccc3nnn(Cc4ccc(Cl)cc4)c32)s1 [Compound 18, 1-(4-chlorobenzyl)-7-methyl-1H-thieno [3’,2’:3,4]benzo [1,2-d][1,2,3]triazole]",4.23,< 4.00,,
"Cc1cccc(Cn2nnc3ccc4sc(C)cc4c32)c1 [Compound 19, 7-methyl-1-(3-methylbenzyl)-1H-thieno [3’,2’:3,4]benzo [1,2-d][1,2,3]triazole]",4.15,< 3.60,,
"COc1cccc(Cn2nnc3ccc4sc(C)cc4c32)c1 [Compound 20, 1-(3-methoxybenzyl)-7-methyl-1H-thieno [3’,2’:3,4]benzo [1,2-d][1,2,3]triazole]",4.04,3.73,,
"Cc1cc2c(ccc3nnn(Cc4cccc(F)c4)c32)s1 [Compound 21, 1-(3-fluorobenzyl)-7-methyl-1H-thieno [3’,2’:3,4]benzo [1,2-d][1,2,3]triazole]",3.76,3.33,,
"Cc1ccc(Cn2n[n+](C)c3ccc4sccc4c32)cc1 [Compound 22, 3-methyl-1-(4-methylbenzyl)-1H-thieno [3’,2’:3,4]benzo [1,2-d][1,2,3]triazol-3-ium]",,,6.00,4.41
"C[n+]1nn(Cc2ccc(Cl)cc2)c2c3ccsc3ccc21 [Compound 23, 1-(4-chlorobenzyl)-3-methyl-1H-thieno [3’,2’:3,4]benzo [1,2-d][1,2,3]triazol-3-ium]",,,6.33,5.36
"Cc1cccc(Cn2n[n+](C)c3ccc4sccc4c32)c1 [Compound 24, 3-methyl-1-(3-methylbenzyl)-1H-thieno [3’,2’:3,4]benzo [1,2-d][1,2,3]triazol-3-ium]",5.15,4.26,,
"Cc1ccc(Cn2n[n+](C)c3ccc4sc(C)cc4c32)cc1 [Compound 25, 3,7-dimethyl-1-(4-methylbenzyl)-1H-thieno [3’,2’:3,4]benzo [1,2-d][1,2,3]triazol-3-ium]",,,3.99,3.68
"Cc1cc2c(ccc3c2n(Cc2ccc(Cl)cc2)n[n+]3C)s1 [Compound 26, 1-(4-chlorobenzyl)-3,7-dimethyl-1H-thieno [3’,2’:3,4]benzo [1,2-d][1,2,3]triazol-3-ium]",4.87,5.09,,
"Cc1cccc(Cn2n[n+](C)c3ccc4sc(C)cc4c32)c1 [Compound 27, 3,7-dimethyl-1-(3-methylbenzyl)-1H-thieno [3’,2’:3,4]benzo [1,2-d][1,2,3]triazol-3-ium]",5.01,5.08,,
"COc1cccc(Cn2n[n+](C)c3ccc4sc(C)cc4c32)c1 [Compound 28, 1-(3-methoxybenzyl)-3,7-dimethyl-1H-thieno [3’,2’:3,4]benzo [1,2-d][1,2,3]triazol-3-ium]",4.97,4.26,,
"C[n+]1nn(Cc2cccc(Cl)c2)c2c3ccsc3ccc21 [Compound 30, 1-(3-chlorobenzyl)-3-methyl-1H-thieno [3’,2’:3,4]benzo [1,2-d][1,2,3]triazol-3-ium]",,,5.57,4.91
"C[n+]1nn(Cc2ccco2)c2c3ccsc3ccc21 [Compound 31, 1-(furan-2-ylmethyl)-3-methyl-1H-thieno [3’,2’:3,4]benzo [1,2-d][1,2,3]triazol-3-ium]",4.79,3.80,,
